According to patent US11236055B2 (Venenum Biodesign, LLC, priority 2016, dated 2022):

Legend:
[1] = molecular target: T1, human TGR5 receptor (Homo sapiens, UniProt Q8TDU6); experiment: Human TGR5 cAMP production assay; format: cell-based; settings: human TGR5, luminescent cAMP assay; coded A-D; read-out: Human TGR5 Lum. cAMP Activity (EC50)
T1 construct: host or cells: CHO-K1 (hTGR5-CHO cells)
T1 sequence (Q8TDU6 1-330): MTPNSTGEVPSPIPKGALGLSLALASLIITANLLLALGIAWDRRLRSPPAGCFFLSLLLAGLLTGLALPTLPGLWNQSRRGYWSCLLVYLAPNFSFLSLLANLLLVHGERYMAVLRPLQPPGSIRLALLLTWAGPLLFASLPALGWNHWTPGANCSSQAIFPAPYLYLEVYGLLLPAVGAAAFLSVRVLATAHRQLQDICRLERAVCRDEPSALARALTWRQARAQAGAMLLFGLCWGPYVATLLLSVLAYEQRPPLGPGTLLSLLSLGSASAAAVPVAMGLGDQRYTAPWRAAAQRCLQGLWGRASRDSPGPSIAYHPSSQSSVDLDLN
Procedure: Human TGR5 cAMP Production Assay
We evaluated the Compounds of the present invention for their ability to induce cAMP production using CHO-K1 cells overexpressing the human TGR5 receptor. CHO-K1 cells stably expressing human TGR5 receptor (accession number NM_001077194.1 (hTGR5) (i.e., hTGR5-CHO cells) were purchased from DiscoveRx Corporation (Fremont, Calif.). hTGR5-CHO cells were grown in Ham's F-12 media supplemented with 10% Fetal Bovine Serum, 1% Penicillin-Streptomycin, 2 mM L-Alanine L-Glutamine (Glutamax), and 800 μg/mL Geneticin selection. The cAMP production assay was performed using DiscoveRx's cAMP XS+ kit (Catalog No. 90-0075XL) following the manufacturer's recommended protocol. Briefly, hTGR5-CHO cells were harvested using non-enzymatic cell dissociation buffer (Sigma-Aldrich, St. Louis, Mo.) and 1×10^6 cells were combined in Phosphate-Buffered Saline (PBS) to a final volume of 496 μL to which 4 μL of 125 mM IBMX (Sigma-Aldrich, St. Louis, Mo.) was added. 500 μL of cAMP antibody solution was added to the harvested cells and incubated at room temperature for 20 min.
Test compounds were serially diluted (half-log dilutions) in DMSO and then further diluted 1:50 in PBS, 10 mM HEPES buffer. 2 μL of serially diluted compound was added to a 384-well low volume plate (Greiner; cat #784075) and centrifuged briefly. 2 μL of the cell/cAMP antibody mixture was then added to each compound-containing well and allowed to incubate at room temperature for one hour. Following incubation, the XS+ kits' ED/Lysis/CL Substrate Working Solution was prepared following the manufacturer's recommended protocol and 4 μL was added to each well of the plate. The plate was then incubated for one hour at room temperature. Following incubation, 4 μL of Enzyme Acceptor reagent was added to the plate and allowed to incubate overnight at room temperature. Luminescent signal was then detected using the Viewlux instrument (Perkin-Elmer, Waltham, Mass.).
(§1) In Table 33, EC50 values for both human and mouse cells were determined according to the TGR5 cAMP assays described above.

[2] = molecular target: T2, mouse TGR5 receptor (Mus musculus, UniProt Q80SS6); experiment: Mouse TGR5 cAMP production assay (HTRF, Cisbio cAMP HiRange); format: cell-based; settings: HEK293-EBNA cells overexpressing mouse TGR5, HTRF cAMP HiRange; coded A-D
T2 construct: expressed in transfected cells; host or cells: HEK293-EBNA (293 c18, ATCC CRL10852), Hygromycin B selection
T2 sequence (Q80SS6 1-329): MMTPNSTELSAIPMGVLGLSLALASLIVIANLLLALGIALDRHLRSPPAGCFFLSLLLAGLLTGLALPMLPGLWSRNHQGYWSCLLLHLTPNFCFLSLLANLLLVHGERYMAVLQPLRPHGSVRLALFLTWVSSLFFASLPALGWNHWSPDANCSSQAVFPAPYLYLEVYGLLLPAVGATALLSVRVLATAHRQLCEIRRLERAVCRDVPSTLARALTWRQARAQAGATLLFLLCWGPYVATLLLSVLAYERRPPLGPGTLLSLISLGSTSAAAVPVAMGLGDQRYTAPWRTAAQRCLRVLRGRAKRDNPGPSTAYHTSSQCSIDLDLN
Excerpt: Mouse TGR5 cAMP Production Assay
We evaluated compounds of the present invention for their ability to induce cAMP production in HEK-EBNA cells overexpressing the mouse TGR5 receptor. Human embryonic kidney cells (HEK293-EBNA) stably expressing mouse TGR5 receptor were established using the following procedure. Specifically, a commercially-obtained gene encoding mouse TGR5 (accession number BC116914) from Thermo Scientific (Waltham, Mass.) was cloned into an episomal expression vector. The resulting expression plasmid was then transfected into 293 c18 (ATCC® CRL10852™) cells, which express the Epstein-Barr virus nuclear antigen EBNA1 and can support the replication of episomal vectors. Selection for the plasmid was maintained with Hygromycin B. Cells were cultured and maintained in DMEM (Sigma; cat #6429) supplemented with 10% Fetal Bovine Serum, 1% penicillin/streptomycin, 2 mM L-alanine L-glutamine (GlutaMax), and 250 μg/mL Hygromycin.
2. HTRF cAMP Production Assay
In this second cAMP production assay, the cAMP production was measured in 384-well low volume plates (Greiner; cat #784075) using the Cisbio™ cAMP HiRange HTRF Assay Kit (Cisbio) according to the manufacturer's protocol.
Briefly, compounds were initially diluted in 100% DMSO (12-point serial dilution by half logs) in a 96-well plate and then were further diluted 1:50 in PBS containing 10 mM HEPES. 5 μL were transferred to the 384-well assay plate in duplicate. HEK293-EBNA cells stably overexpressing mouse TGR5 were harvested using non-enzymatic cell dissociation buffer (Sigma), spun down, then resuspended in serum-free DMEM with 500 μM IBMX at a density of 500,000 cells/mL. 5 μL of cell suspension was transferred to each well of the 384-well assay plate already containing compound. The plate was covered and incubated at room temperature for 1 hour. The d2-cAMP and anti-cAMP Ab-cryptate stock solutions were prepared as per kit instructions. Then 5 μL of each conjugate (d2 and cryptate) were added to each well of the assay plate. The plate was covered and incubated at room temperature for 1 hour. The plate was read on an Envision™ plate reader (Perkin Elmer).
as §1

Row | EC50 [1] | EC50 [2] | SMILES
1 | 0.1 to 0.999 µM | 1 to 30 µM | Cc1cnccc1-c1cccc(CCN(CCCC(=O)NCCS(=O)(=O)O)S(=O)(=O)c2cccc(Cl)c2C)c1 [Compound 20BT, 2-(4-(3-chloro-2-methyl-N-(3-(3-methylpyridin-4-yl)phenethyl)phenylsulfonamido)butanamido)ethanesulfonic acid]
2 | < 0.1 µM | < 0.1 µM | Cc1cnccc1-c1cccc(C(C)(C)N(CCCC(=O)N[C@H](C)C(=O)O)S(=O)(=O)c2cccc(Cl)c2C)c1 [Compound 21AE, (R)-2-(4-(3-chloro-2-methyl-N-(2-(3-(3-methylpyridin-4-yl)phenyl)propan-2-yl)phenylsulfonamido)butanamido)propanoic acid]
3 | < 0.1 µM | 0.1 to 0.999 µM | Cc1cnccc1-c1cccc(C(C)N(CCCNc2c(NCS(=O)(=O)O)c(=O)c2=O)S(=O)(=O)c2cccc(Cl)c2C)c1 (stereo not shown) [Compound 32AA, ((2-((3-(3-chloro-2-methyl-N-(1-(3-(3-methylpyridin-4-yl)phenyl)ethyl)phenylsulfonamido)propyl)amino)-3,4-dioxocyclobut-1-en-1-yl)amino)methanesulfonic acid]
4 | < 0.1 µM | < 0.1 µM | Cc1cnccc1-c1cccc([C@H](C)N(CCCCC(=O)NCCOCCNS(=O)(=O)CC(=O)O)S(=O)(=O)c2cccc(Cl)c2C)c1 [Compound 26AD]
5 | 0.1 to 0.999 µM | < 0.1 µM | CCc1cnccc1-c1cccc(C2CN(C(=O)CCC(=O)NCCCS(=O)(=O)O)CCN2S(=O)(=O)c2cccc(Cl)c2C)c1 (stereo not shown) [Compound 53AC, 3-(4-(4-((3-chloro-2-methylphenyl)sulfonyl)-3-(3-(3-ethylpyridin-4-yl)phenyl)piperazin-1-yl)-4-oxobutanamido)propane-1-sulfonic acid]
6 | 0.1 to 0.999 µM | > 30 µM | Cc1c(Cl)cccc1S(=O)(=O)N(CCCC(=O)NCCS(=O)(=O)O)[C@@H](C)c1cccc(-c2ccnnc2)c1 [Compound 20BO, (S)-2-(4-(3-chloro-2-methyl-N-(1-(3-(pyridazin-4-yl)phenyl)ethyl)phenylsulfonamido)butanamido)ethanesulfonic acid]
7 | < 0.1 µM | < 0.1 µM | Cc1cnccc1-c1cccc(C(C)(C)N(CCCNC(=O)NCCCS(=O)(=O)O)S(=O)(=O)c2cccc(Cl)c2C)c1 [Compound 29AC]
8 | < 0.1 µM | 0.1 to 0.999 µM | Cc1cnccc1-c1cccc(C(C)(C)N(CCCC(=O)NCCNC(=O)OC(C)(C)C)S(=O)(=O)c2cccc(Cl)c2C)c1 [Compound 20AV, tert-butyl (2-(4-(3-chloro-2-methyl-N-(2-(3-(3-methylpyridin-4-yl)phenyl)propan-2-yl)phenylsulfonamido)butanamido)ethyl)carbamate]
9 | 0.1 to 0.999 µM | 0.1 to 0.999 µM | Cc1cnccc1-c1cccc(CN(CCCNC(=O)NCS(=O)(=O)O)S(=O)(=O)c2cccc(Cl)c2C)c1 [Compound 28AI, (3-(3-(3-chloro-2-methyl-N-(3-(3-methylpyridin-4-yl)benzyl)phenylsulfonamido)propyl)ureido)methanesulfonic acid]
10 | 0.1 to 0.999 µM | 0.1 to 0.999 µM | Cc1cnccc1-c1cccc(C2CN(CCCC(=O)O)CCN2S(=O)(=O)c2cccc(Cl)c2C)c1 (stereo not shown) [Compound 52, 4-(4-((3-chloro-2-methylphenyl)sulfonyl)-3-(3-(3-methylpyridin-4-yl)phenyl)piperazin-1-yl)butanoic acid]

Further lines, the compound ahead of its results:

Row | SMILES | EC50 [1] | EC50 [2]
11 | Cc1c(Cl)cccc1S(=O)(=O)N[C@@H](C)c1cccc(-c2ccnnc2)c1 [Compound 1BP] | 0.1 to 0.999 µM | 1 to 30 µM
12 | COc1cnccc1-c1cccc(C(C)(C)NS(=O)(=O)c2ccccc2N)c1 [Compound 10, 2-amino-N-(2-(3-(3-methoxypyridin-4-yl)phenyl)propan-2-yl)benzenesulfonamide] | 0.1 to 0.999 µM | 0.1 to 0.999 µM
13 | CN(C)C(=O)c1cnccc1-c1cccc(C(C)(C)NS(=O)(=O)c2ccccc2C(F)(F)F)c1 [Compound 11, N,N-dimethyl-4-(3-(2-(2-(trifluoromethyl)phenylsulfonamido)propan-2-yl)phenyl)nicotinamide] | 1 to 30 µM | 1 to 30 µM
14 | Cc1cnccc1-c1cccc(C2CN(C(=O)CS(=O)(=O)O)CCN2S(=O)(=O)c2cccc(Cl)c2Cl)c1 (stereo not shown) [Compound 49AC, 2-(4-((2,3-dichlorophenyl)sulfonyl)-3-(3-(3-methylpyridin-4-yl)phenyl)piperazin-1-yl)-2-oxoethanesulfonic acid] | < 0.1 µM | < 0.1 µM
15 | Cc1c(Cl)cccc1S(=O)(=O)N[C@@H](C)c1cccc(-n2ccncc2=O)c1 [Compound 12, (S)-3-chloro-2-methyl-N-(1-(3-(2-oxopyrazin-1(2H)-yl)phenyl)ethyl)benzenesulfonamide] | 0.1 to 0.999 µM | 1 to 30 µM
16 | Cc1cnccc1-c1cccc([C@H](CCCC#N)NS(=O)(=O)c2ccccc2C(F)(F)F)c1 [Compound 5BC, (S)-N-(4-cyano-1-(3-(3-methylpyridin-4-yl)phenyl)-butyl)-2-(trifluoromethyl)benzenesulfonamide] | < 0.1 µM | < 0.1 µM
17 | CCc1cnccc1-c1cccc(C2CN(C(=O)CN(C)CC(=O)O)CCN2S(=O)(=O)c2cccc(Cl)c2C)c1 (stereo not shown) [Compound 46AC, 2-((2-(4-((3-chloro-2-methylphenyl)sulfonyl)-3-(3-(3-ethylpyridin-4-yl)phenyl)piperazin-1-yl)-2-oxoethyl)(methyl)amino)acetic acid] | < 0.1 µM | < 0.1 µM
18 | CC(C)(NS(=O)(=O)c1cccc(C(F)(F)F)c1)c1cccc(-c2ccc3nccn3c2)c1 [Compound 5AF, N-(2-(3-(imidazo[1,2-a]pyridin-6-yl)phenyl)propan-2-yl)-3-(trifluoromethyl)benzenesulfonamide] | 0.1 to 0.999 µM | 1 to 30 µM
19 | CC(C)(NS(=O)(=O)c1cccc(C(F)(F)F)c1)c1cccc(-c2ccncc2N)c1 [Compound 1AM] | < 0.1 µM | 0.1 to 0.999 µM
20 | CC(C)(NS(=O)(=O)c1ccccc1C(F)(F)F)c1cccc(-c2ccnnc2)c1 [Compound 1BL] | 0.1 to 0.999 µM | 1 to 30 µM
